Experimental data published in patent publication US20150105252A1, “SUBSTITUTED PYRAZOLES AS HERBICIDES” (E I DU PONT DE NEMOURS AND COMPANY, priority 2013, published 2015).

Key:
velvetleaf [1] = test: Test C preemergence; type: in vivo, Abutilon theophrasti
In short: (§1)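 Visual rating, 0–100 scale (0 no effect, 100 complete control), vs untreated controls after 13–15 d greenhouse. Pre: seeds in loam/sand, treated at sowing. Post: plants in peat-based mix, 1- to 4-leaf (2–18 cm). Solvent + surfactant formulation, non-phytotoxic.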

velvetleaf [2] = test: Test C postemergence; type: in vivo, Abutilon theophrasti; settings: for Plant response rating, Velvetleaf / Velvetleaf plant response rating: postemergence; for Velvetleaf plant response rating: scale 0 to 100
In short: as §1

corn = test: Test C preemergence; type: in vivo, Zea mays
In short: as §1

blackgrass = test: Test C postemergence; type: in vivo, Alopecurus myosuroides; settings: for Plant response rating (scale of 0 to 100 where 0 is no effect and 100 is complete control), Blackgrass: 31 g ai/ha, visually evaluated after 13 to 15 days; for Blackgrass plant response rating / Plant response rating, Blackgrass: postemergence; for Blackgrass plant response rating: 62 g ai/ha, scale 0 to 100
In short: as §1

nutsedge, yellow = test: Test C preemergence; type: in vivo, Cyperus esculentus
In short: as §1

crabgrass, large = test: Test A preemergence; type: in vivo, Digitaria sanguinalis
In short: (§2)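 Growth medium: loam soil blended with sand. Preemergence treatment used a directed soil spray right after planting; postemergence treatment targeted seedlings at one to two leaves (2–10 cm height). Response was judged by eye relative to untreated plants about 10 days later on a 0–100 control scale.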

wheat [3] = test: Test A postemergence; type: in vivo, Triticum aestivum
In short: as §2

oilseed rape = test: Test C postemergence; type: in vivo, Brassica napus; settings: for Oilseed Rape plant response rating / Plant response rating, Oilseed Rape: postemergence; for Oilseed Rape plant response rating: 62 g ai/ha, scale 0 to 100
Text: (§3) Seeds of plant species selected from blackgrass (Alopecurus myosuroides), ryegrass, Italian (Italian ryegrass, Lolium multiflorum), wheat (winter wheat, Triticum aestivum), galium (catchweed bedstraw, Galium aparine), corn (Zea mays), crabgrass, large (large crabgrass, Digitaria sanguinalis), foxtail, giant (giant foxtail, Setaria faberii), johnsongrass (Sorghum halepense), lambsquarters (Chenopodium album), morningglory (Ipomoea coccinea), nutsedge, yellow (yellow nutsedge, Cyperus esculentus), pigweed (redroot pigweed, Amaranthus retroflexus), ragweed (common ragweed, Ambrosia elation), soybean (Glycine max), barnyardgrass (Echinochloa crus-galli), oilseed rape (Brassica napus), waterhemp (common waterhemp, Amaranthus rudis), oat, wild (wild oat, Avena fatua), kochia (Kochia scoparia), Surinam grass (Brachiaria decumbens), foxtail, green (green foxtail, Setaria viridis), goosegrass (Eleusine indica), bromegrass, downy (downy bromegrass, Bromus tectorum), nightshade (eastern black nightshade, Solanum ptycanthum), cocklebur (common cocklebur, Xanthium strumarium), cupgrass, woolly (woolly cupgrass, Eriochloa villosa), bermudagrass (Cynodon dactylon), sunflower, (common oilseed sunflower, Helianthus annuus), Russian thistle (Salsola kali), and velvetleaf (Abutilon theophrasti) were planted into a blend of loam soil and sand and treated preemergence with test chemicals formulated in a non-phytotoxic solvent mixture which included a surfactant.
(§4) At the same time, plants selected from these crop and weed species and also chickweed (common chickweed, Stellaria media), canarygrass (littleseed canarygrass, Phalaris minor), and deadnettle (henbit deadnettle, Lamium amplexicaule), were planted in pots containing Redi-Earth® planting medium (Scotts Company, 14111 Scottslawn Road, Marysville, Ohio 43041) comprising spaghnum peat moss, vermiculite, wetting agent and starter nutrients and treated with postemergence applications of test chemicals formulated in the same manner. Plants ranged in height from 2 to 18 cm (1- to 4-leaf stage) for postemergence treatments. Treated plants and controls were maintained in a greenhouse for 13 to 15 days, after which time all species were compared to controls and visually evaluated. Plant response ratings, summarized in Table C, are based on a scale of 0 to 100 where 0 is no effect and 100 is complete control. A dash (-) response means no test result.

wheat [4] = test: Test A preemergence; type: in vivo, Triticum aestivum; settings: preemergence
In short: as §2

waterhemp = test: Test C preemergence; type: in vivo, Amaranthus rudis
Text: as §3, §4

kochia = test: Test C postemergence; type: in vivo, Kochia scoparia; settings: for Plant response rating (scale of 0 to 100 where 0 is no effect and 100 is complete control), Kochia: 31 g ai/ha, visually evaluated after 13 to 15 days; for Kochia plant response rating / Plant response rating, Kochia: postemergence; for Kochia plant response rating: 62 g ai/ha, scale 0 to 100
In short: as §1

soybean = test: Test C postemergence; type: in vivo, Glycine max; settings: for Plant response rating, Soybean / Soybean plant response rating: postemergence
In short: as §1

barnyardgrass = test: Test C postemergence; type: in vivo, Echinochloa crus-galli; settings: for Plant response rating (scale of 0 to 100 where 0 is no effect and 100 is complete control), Barnyardgrass: 31 g ai/ha, visually evaluated after 13 to 15 days; for Barnyardgrass plant response rating / Plant response rating, Barnyardgrass: postemergence; for Barnyardgrass plant response rating: 62 g ai/ha, scale 0 to 100
Text: as §3, §4

[5] = preemergence, 31 g ai/ha, visual rating, scale 0 to 100 (0 no effect, 100 complete control), 13 to 15 days
[6] = preemergence, 62 g ai/ha, scale 0 to 100 (0 no effect, 100 complete control), 13 to 15 days
[7] = preemergence, 125 g ai/ha, 13 to 15 days, scale 0 to 100, 0 = no effect, 100 = complete control
[8] = preemergence, 250 g ai/ha, scale 0 to 100, 0 is no effect, 100 is complete control
[9] = 250 g ai/ha, scale 0 to 100 (0 no effect, 100 complete control)
[10] = 125 g ai/ha, scale 0 to 100, 0 no effect, 100 complete control
[11] = 500 g ai/ha, visual injury after approx. 10 days, 0 to 100 scale (0 no effect, 100 complete control)
[12] = Preemergence, 16 g ai/ha, scale 0 to 100
[13] = preemergence, 31 g ai/ha, scale 0 to 100 (0 no effect, 100 complete control), 13 to 15 days
[14] = preemergence, 62 g ai/ha, 13 to 15 days, scale 0 to 100, 0 = no effect, 100 = complete control
[15] = preemergence, 125 g ai/ha, scale 0 to 100, 0 is no effect, 100 is complete control
[16] = Postemergence, 31 g ai/ha, visually evaluated after 13 to 15 days

CCCc1cc(C(=O)NC2CC2)nn1Cc1cc(C(F)(F)F)nn1C [Compound 202]
Velvetleaf plant response rating (velvetleaf [1]; [5]): 60 | Velvetleaf plant response rating (velvetleaf [1]; [6]): 100 | Plant response rating, Velvetleaf (velvetleaf [1]; [7]): 100 | Velvetleaf plant response rating (velvetleaf [1]; [8]): 100 | Plant response rating, Velvetleaf (velvetleaf [2]; [9]): 65 | Velvetleaf plant response rating (velvetleaf [2]): 40 | Corn plant response rating (corn; [5]): 5 | Corn plant response rating (corn; [6]): 35 | Plant response rating, Corn (corn; [7]): 60 | Corn plant response rating (corn; [8]): 95 | Plant response rating (scale of 0 to 100 where 0 is no effect and 100 is complete control), Blackgrass (blackgrass; Postemergence): 5 | Blackgrass plant response rating (blackgrass): 10 | Plant response rating, Blackgrass (blackgrass; [9]): 30 | Plant response rating, Blackgrass (blackgrass; [10]): 20 | Nutsedge, Yellow plant response rating (nutsedge, yellow; [5]): 0 | Nutsedge, Yellow plant response rating (nutsedge, yellow; [6]): 5 | Plant response rating, Nutsedge, Yellow (nutsedge, yellow; [7]): 30 | Nutsedge, Yellow plant response rating (nutsedge, yellow; [8]): 50 | Crabgrass, Large plant response rating (0 to 100 scale) (crabgrass, large; preemergence, 125 g ai/ha, visual injury approx. 10 days after treatment): 100 | Crabgrass, Large plant response rating (crabgrass, large; preemergence, 500 g ai/ha, visual injury after approx. 10 days, 0 to 100 scale (0 no effect, 100 complete control)): 100 | Wheat plant response rating (wheat [3]; Postemergence, 125 g ai/ha, 0 to 100 scale, 0 no effect, 100 complete control): 60 | Wheat plant response rating (wheat [3]; Postemergence, 500 g ai/ha, 0 to 100 scale (0 no effect, 100 complete control)): 80 | Oilseed Rape plant response rating (oilseed rape): 30 | Plant response rating, Oilseed Rape (oilseed rape; [9]): 80 | Plant response rating, Oilseed Rape (oilseed rape; [10]): 65 | Wheat plant response rating (0 to 100 scale) (wheat [4]; 125 g ai/ha, visual injury approx. 10 days after treatment): 30 | Wheat plant response rating (wheat [4]; [11]): 100 | Waterhemp plant response rating (waterhemp; [5]): 100 | Waterhemp plant response rating (waterhemp; [6]): 100 | Plant response rating, Waterhemp (waterhemp; [7]): 100 | Waterhemp plant response rating (waterhemp; [8]): 100 | Plant response rating (scale of 0 to 100 where 0 is no effect and 100 is complete control), Kochia (kochia; Postemergence): 85 | Kochia plant response rating (kochia): 90 | Plant response rating, Kochia (kochia; [9]): 90 | Plant response rating, Kochia (kochia; [10]): 90 | Plant response rating, Soybean (soybean; [9]): 98 | Soybean plant response rating (soybean; [10]): 98 | Plant response rating (scale of 0 to 100 where 0 is no effect and 100 is complete control), Barnyardgrass (barnyardgrass; Postemergence): 10 | Barnyardgrass plant response rating (barnyardgrass): 10 | Plant response rating, Barnyardgrass (barnyardgrass; [9]): 25 | Plant response rating, Barnyardgrass (barnyardgrass; [10]): 15

CCONC(=O)c1cc(CC)n(Cc2ccnc(C(F)(F)F)c2)n1 [Compound 77]
Plant response rating, Velvetleaf (velvetleaf [1]; [12]): 30 | Velvetleaf plant response rating (velvetleaf [1]; [13]): 35 | Plant response rating, Velvetleaf (velvetleaf [1]; [14]): 60 | Velvetleaf plant response rating (velvetleaf [1]; [15]): 100 | Plant response rating (scale of 0 to 100), Velvetleaf (velvetleaf [2]; Postemergence, 16 g ai/ha): 10 | Plant response rating (scale of 0 to 100 where 0 is no effect and 100 is complete control), Velvetleaf (velvetleaf [2]; [16]): 15 | Velvetleaf plant response rating (velvetleaf [2]; 62 g ai/ha): 15 | Plant response rating, Velvetleaf (velvetleaf [2]; [10]): 20 | Plant response rating, Corn (corn; [12]): 0 | Corn plant response rating (corn; [13]): 0 | Plant response rating, Corn (corn; [14]): 15 | Corn plant response rating (corn; [15]): 55 | Plant response rating (scale of 0 to 100), Blackgrass (blackgrass; Postemergence, 16 g ai/ha): 0 | Plant response rating (scale of 0 to 100 where 0 is no effect and 100 is complete control), Blackgrass (blackgrass; Postemergence): 5 | Blackgrass plant response rating (blackgrass): 5 | Plant response rating, Blackgrass (blackgrass; [10]): 5 | Plant response rating, Nutsedge, Yellow (nutsedge, yellow; [12]): 10 | Nutsedge, Yellow plant response rating (nutsedge, yellow; [13]): 10 | Plant response rating, Nutsedge, Yellow (nutsedge, yellow; [14]): 25 | Nutsedge, Yellow plant response rating (nutsedge, yellow; [15]): 60 | Crabgrass, Large plant response rating (crabgrass, large; Preemergence, 500 g ai/ha, 0 to 100 scale, 0 no effect, 100 complete control): 100 | Crabgrass, Large plant response rating (crabgrass, large; preemergence, 125 g ai/ha, visual injury, 0 to 100 scale, approx. 10 days): 100 | Wheat plant response rating (wheat [3]; Postemergence, 500 g ai/ha, visual rating after approx. 10 days, 0 to 100 scale (0 no effect, 100 complete control)): 50 | Wheat plant response rating (wheat [3]; postemergence, 125 g ai/ha, about 10 days, visual rating on 0 to 100 scale (0 no effect, 100 complete control)): 40 | Plant response rating (scale of 0 to 100), Oilseed Rape (oilseed rape; Postemergence, 16 g ai/ha): 5 | Plant response rating (scale of 0 to 100 where 0 is no effect and 100 is complete control), Oilseed Rape (oilseed rape; [16]): 5 | Oilseed Rape plant response rating (oilseed rape): 5 | Plant response rating, Oilseed Rape (oilseed rape; [10]): 15 | Wheat plant response rating (wheat [4]; 125 g ai/ha, visual injury, 0 to 100 scale, approx. 10 days): 20 | Wheat plant response rating (wheat [4]; [11]): 40 | Plant response rating, Waterhemp (waterhemp; [12]): 70 | Waterhemp plant response rating (waterhemp; [13]): 98 | Plant response rating, Waterhemp (waterhemp; [14]): 98 | Waterhemp plant response rating (waterhemp; [15]): 100 | Plant response rating (scale of 0 to 100), Kochia (kochia; Postemergence, 16 g ai/ha): 40 | Plant response rating (scale of 0 to 100 where 0 is no effect and 100 is complete control), Kochia (kochia; Postemergence): 40 | Kochia plant response rating (kochia): 45 | Plant response rating, Kochia (kochia; [10]): 70 | Plant response rating (scale of 0 to 100), Soybean (soybean; Postemergence, 16 g ai/ha): 10 | Plant response rating (scale of 0 to 100 where 0 is no effect and 100 is complete control), Soybean (soybean; [16]): 10 | Soybean plant response rating (soybean; 62 g ai/ha, scale 0 to 100): 25 | Plant response rating, Soybean (soybean; [10]): 35 | Plant response rating (scale of 0 to 100), Barnyardgrass (barnyardgrass; Postemergence, 16 g ai/ha): 0 | Plant response rating (scale of 0 to 100 where 0 is no effect and 100 is complete control), Barnyardgrass (barnyardgrass; Postemergence): 0 | Barnyardgrass plant response rating (barnyardgrass): 5 | Plant response rating, Barnyardgrass (barnyardgrass; [10]): 20
